Data set [1] concerns Muhlenbergia. As to the kind of experiment: Post-emergence herbicidal activity against Muhlenbergia frondosa at 35 g a.i./ha measured after 56 days in presence of 28% UAN relative to untreated-control. The class given is functional.
For data set [2], the system named is Muhlenbergia. As to the kind of experiment: Post-emergence herbicidal activity against Muhlenbergia frondosa assessed as increase in maize yield at 35 g a.i./ha in presence of 28% UAN relative to untreated-control. Format: functional.
Data set [3] has as its system Muhlenbergia. As to the kind of experiment: Post-emergence herbicidal activity against Muhlenbergia frondosa assessed as reduction in dry weight at 35 g a.i./ha measured after 56 days in presence of 28% UAN relative to untreated-control. The class given is functional. On the set-up: scale not given: the % may be the effect or the level left.
Data set [4] deals with Muhlenbergia. As to the kind of experiment: Post-emergence herbicidal activity against Muhlenbergia frondosa assessed as reduction in density at 35 g a.i./ha measured after 56 days in presence of 28% UAN relative to untreated-control. Format: functional. Further details: scale not given: the % may be the effect or the level left.
Data set [5] concerns Muhlenbergia. As to the kind of experiment: Post-emergence herbicidal activity against Muhlenbergia frondosa at 35 g a.i./ha measured after 28 days in presence of 28% UAN relative to untreated-control. The class given is functional.
The subject of data set [6] is Zea mays. As to the kind of experiment: Phytotoxicity against Zea mays (maize) crop assessed as crop injury at 35 g a.i./ha measured after 7 days in presence of 28% UAN relative to control. Format: organism-based. The following applies: in vivo, 168 h.
Data set [7] deals with Muhlenbergia. As to the kind of experiment: Post-emergence herbicidal activity against Muhlenbergia frondosa at 25 g a.i./ha measured after 56 days in presence of Agral 90 relative to untreated-control. The class given is functional.
The test system of data set [8] is Elymus repens. As to the kind of experiment: Post-emergence herbicidal activity against Elymus repens (couch grass) relative to control. The class given is functional.
Data set [9] relates to Elymus repens. As to the kind of experiment: Post-emergence herbicidal activity against Elymus repens (couch grass) at 35 g/ha relative to control. Format: functional.
Data set [10] has as its system Muhlenbergia. As to the kind of experiment: Post-emergence herbicidal activity against Muhlenbergia frondosa assessed as increase in maize yield at 25 g a.i./ha in presence of Agral 90 relative to untreated-control. The class given is functional.
The subject of data set [11] is Muhlenbergia. As to the kind of experiment: Post-emergence herbicidal activity against Muhlenbergia frondosa assessed as reduction in dry weight at 25 g a.i./ha measured after 56 days in presence of Agral 90 relative to untreated-control. Format: functional. Further details: scale not given: the % may be the effect or the level left.
The subject of data set [12] is Muhlenbergia. As to the kind of experiment: Post-emergence herbicidal activity against Muhlenbergia frondosa assessed as reduction in density at 25 g a.i./ha measured after 56 days in presence of Agral 90 relative to untreated-control. Format: functional. Further details: scale not given: the % may be the effect or the level left.
Data set [13] deals with Muhlenbergia. As to the kind of experiment: Post-emergence herbicidal activity against Muhlenbergia frondosa at 25 g a.i./ha measured after 28 days in presence of Agral 90 relative to untreated-control. The class given is functional.
The subject of data set [14] is Zea mays. As to the kind of experiment: Phytotoxicity against Zea mays (maize) crop assessed as crop injury at 25 g a.i./ha measured after 7 days in presence of Agral 90 relative to control. The note with it: in vivo, 168 h. The class given is organism-based.
The test system of data set [15] is Elymus repens. As to the kind of experiment: Post-emergence herbicidal activity against Elymus repens (couch grass) at 42 g/ha relative to control. The class given is functional.
For data set [16], the system named is Muhlenbergia. As to the kind of experiment: Post-emergence herbicidal activity against Muhlenbergia frondosa assessed as maize yield at 25 g a.i./ha in presence of Agral 90 (reference value: 9.64 tons/ha). The class given is functional.
Data set [17] relates to Muhlenbergia. As to the kind of experiment: Post-emergence herbicidal activity against Muhlenbergia frondosa assessed as dry weight at 25 g a.i./ha measured after 56 days in presence of Agral 90 (reference value: 102 g). Format: functional.
The subject of data set [18] is Muhlenbergia. As to the kind of experiment: Post-emergence herbicidal activity against Muhlenbergia frondosa assessed as number of plants at 25 g a.i./ha measured after 56 days in presence of Agral 90 (reference value: 41 /m2). The class given is functional.
For data set [19], the system named is Muhlenbergia. As to the kind of experiment: Post-emergence herbicidal activity against Muhlenbergia frondosa at 15 g a.i./ha measured after 56 days in presence of Agral 90 relative to untreated-control. Format: functional.
Data set [20] relates to Muhlenbergia. As to the kind of experiment: Post-emergence herbicidal activity against Muhlenbergia frondosa assessed as increase in maize yield at 15 g a.i./ha in presence of Agral 90 relative to untreated-control. The class given is functional.
Data set [21] relates to Muhlenbergia. As to the kind of experiment: Post-emergence herbicidal activity against Muhlenbergia frondosa assessed as dry weight at 15 g a.i./ha measured after 56 days in presence of Agral 90 (reference value: 102 g). Format: functional.
In data set [22] the test system is Muhlenbergia. As to the kind of experiment: Post-emergence herbicidal activity against Muhlenbergia frondosa assessed as number of plants at 15 g a.i./ha measured after 56 days in presence of Agral 90 (reference value: 41 /m2). Format: functional.
Data set [23] deals with Muhlenbergia. As to the kind of experiment: Post-emergence herbicidal activity against Muhlenbergia frondosa at 15 g a.i./ha measured after 28 days in presence of Agral 90 relative to untreated-control. The class given is functional.
The subject of data set [24] is Zea mays. As to the kind of experiment: Phytotoxicity against Zea mays (maize) crop assessed as crop injury at 15 g a.i./ha measured after 7 days in presence of Agral 90 relative to control. The following applies: in vivo, 168 h. The class given is organism-based.

With `COc1cc(OC)nc(NC(=O)NS(=O)(=O)c2cc(NC=O)ccc2C(=O)N(C)C)n1` [FORAMSULFURON], the Activity stood at 89% in [1]; 17% in [2]; 94% in [3]; 76% in data set [4]; 80% in data set [5]; 1.1% in [6].

Consider `COc1cc(OC)nc(NC(=O)NS(=O)(=O)c2ncccc2C(=O)N(C)C)n1` [NICOSULFURON], for which the Activity in [7] was 32%; in data set [8], 89%; in [9], 97%; in data set [10] it was 22%; in [11], 70%; in data set [12] it was 44%. Further, the Activity in [13] was 49%; in data set [14], 1.1%.

For the compound `O=C(Nc1nc(OC(F)F)cc(OC(F)F)n1)NS(=O)(=O)c1ccccc1C(=O)O` [PRIMISULFURON], the Activity is given as 12% in [7]; 80% in [8]; 94% in [15]; 78 g in data set [17]; 39 /m2 in [18]; 32% in [13]. Also, the Activity in data set [14] came to 1.2%. Moreover, the Crop_yield in data set [16] is 10.1 tons/ha.

On to `CCS(=O)(=O)c1cccnc1S(=O)(=O)NC(=O)Nc1nc(OC)cc(OC)n1` [RIMSULFURON], for which the Activity is given as 14% in [19]; 63% in [8]; 11% in [20]; 72 g in [21]; 44 /m2 in data set [22]; 32% in [23]. Also, in [24], the Activity turned out to be 1.2%.

The values above are taken from ChEMBL document CHEMBL3046704, “Control of Muhlenbergia frondosa (wirestem muhly) with post-emergence sulfonylurea herbicides in maize (Zea mays)” (Crop Prot, 2007).
